According to patent US6720136B2, “Solid phase quenching systems” (V. I Technologies, Inc., priority 1998, dated 2004):

Test: Quenching of ethyleneimine dimer in whole CPD human blood, EID concentration in plasma and RBC fractions by HPLC
Description: 50 μl of 120 mM ethyleneimine dimer (EID, PEN102) in 0.25 M NaH2PO4 was added to 0.9 ml of whole human CPD blood (final concentration of EID was 6 mM, 6 μmole total), and incubated at 23° C. for 4 hours. At the end of the 4-hour incubation period, 68 mg (50 μmole-equivalents of phosphothiomonoester groups) of ArgoPore-Thiophosphate support (prepared as described in Example 2) was added. In the parallel experiment, 50 μl of 1 M Na2S2O3 (final concentration 50 mM) was added to same amount of EID treated blood. Both samples were allowed to incubate for 2 hours at 23° C. The red blood cell (RBC) and plasma fraction of the blood were separated by centrifugation (10,000 rpm, 5 min), and the RBCs were opened by adding 9 volumes of water. The concentration of EID was determined in the RBC fraction and in the plasma fraction of the blood by HPLC (FIG. 6).

O=S(O)(O)=S [sodium thiosulfate]
concentration of ethyleneimine dimer in plasma fraction after quenching (6 mM EID for 4 hours at 23° C., then quencher (50 μmole-equivalents support or 50 mM Na2S2O3) for 2 hours at 23° C., plasma): 6.8 µg/mL | concentration of ethyleneimine dimer in red blood cell fraction after quenching (6 mM EID for 4 hours at 23° C., then quencher (50 μmole-equivalents support or 50 mM Na2S2O3) for 2 hours at 23° C., red blood cells): 2.2 µg/mL | quenching of ethyleneimine dimer in blood (in words) (6 mM EID, quencher 2 hours at 23° C.): capable of quenching ethyleneimine dimer
